Earlier results on two compounds are cited in US20150272935A1, “Use of a Factor Xa Inhibitor for Treating and Preventing Bleeding Events And Related Disorders in Patients Having Sensitivity to Vitamin K Antagonists Used As Anticoagulants” (priority 2014, published 2015).

Each structure is given as a SMILES string. Read-outs that look alike come from different tables or passages of the source.

One data set has as its target CYP2C9*2 (Homo sapiens, UniProt P11712, R144C). As to conditions: CYP2C9*2 versus CYP2C9*1.
The next data set has as its target CYP2C9*3 (Homo sapiens, UniProt P11712, I359L). As to conditions: CYP2C9*3 versus CYP2C9*1.
For data set [1] the following is noted: rats.
The conditions of data set [2]: monkeys.

As for `CC(=O)CC(c1ccccc1)c1c(O)c2ccccc2oc1=O` (stereo not drawn) [Warfarin], the “reduction of warfarin metabolism” value is “about 30%” at CYP2C9*2 and “about 90%” on CYP2C9*3.
On to `CN1CCc2nc(C(=O)N[C@@H]3C[C@@H](C(=O)N(C)C)CC[C@@H]3NC(=O)C(=O)Nc3ccc(Cl)cn3)sc2C1.Cc1ccc(S(=O)(=O)O)cc1` [Edoxaban], for which the oral bioavailability entry in data set [1] is “orally bioavailable”, the oral bioavailability entry in data set [2] is “orally bioavailable” and the oral bioavailability result (human subjects) is reported as “orally bioavailable”. Further, the safety and tolerability result (doses of up to 90 mg per day) is “generally safe and well tolerated”.
